US20190175554A1, “METHOD FOR TREATING PRURITUS AND/OR ITCH” (Neurim Pharmaceuticals (1991) Ltd., priority 2016, published 2019)
Values joined by “and” are separate entries in the source; they are usually repeats but may differ in a detail not shown here. Equal entries are not always repeated. Where two headings read alike, the source gives them in different places.

What was measured:
[1] = tested on: mice, formalin injected into the right hindpaw; assay: Formalin test, hindpaw licking time in mice; format: in vivo, mouse; conditions: 100 mg/kg intraperitoneally 30 min before formalin
Procedure: The anti-pruritus activity of pyrone-indole compounds were assessed using this model.
Method. The noxious stimulus is an injection of dilute formalin under the skin of the dorsal surface of the right hindpaw. The response is the amount of time the animals spend licking the injected paw 5-10 minutes (early phase), or 20-30 minutes (late phase) after the injection of formalin. Mice (N=8 per group) were injected intraperitoneally with test compound (100 mg/kg), or morphine (4 mg/kg), or vehicle. Thirty minutes later, formalin (20 μl 2.5% in water) was injected by the subplantar route into the right hindpaw. Hindpaw licking time was recorded in consecutive 5 minute-intervals during the first 10 minutes (early phase), and from 15 to 35 minutes (late phase) after formalin injection.

[2] = molecular target: T1, TRPV1 (Homo sapiens, UniProt Q8NER1); assay: TRPV1 calcium influx assay; format: cell-based; conditions: for inhibitory effect on TRPV1 mediated calcium influx (in words): 10 μM, significant = three or more SD from agonist mean (37.74% inhibition); for inhibition at 0.1 µM / inhibition at 0.5 µM / inhibition at 1 µM / inhibition at 5 µM / inhibition at 10 µM: read-out: Normalized % inhibition; for inhibition at 0.5 µM: Test conc 0.5 μM; for inhibition at 1 µM: Test conc 1 μM; for inhibition at 5 µM: Test conc 5 μM; for inhibition at 10 µM: Test conc 10 μM
Procedure: Method. The ability of N-[2-(1H-indol-3-yl)-ethyl]-comanilamide, N-[2-(5-methoxy-indol-3-yl)-ethyl]-comanilamide and 2-methyl-4-oxo-4H-pyran-3-yl [2-(5-methoxy-1H-indol-3-yl)ethyl]carbamate to act as antagonists of TRPV1 was evaluated with a calcium influx assay. The signal elicited in the presence of the positive control agonist (0.1 μM capsaicin) was set to 100% and the signal in the presence of the antagonist (0.1 μM capsaicin+3 μM ruthenium red) was set to 0.

[3] = molecular target: T1, TRPV1; assay: TRPV1 calcium influx assay; format: cell-based
[4] = molecular target: T2, hNav1.7 (Homo sapiens, UniProt Q15858); assay: Block of hNav1.x channels expressed in mammalian cells, voltage protocol; format: cell-based; conditions: blocking effects on hNav1.x channels, Table 3
T2 construct: expressed in transfected cells
Procedure: Effects of N-[2-(1H-indol-3-yl)-ethyl]-comanilamide, N-[2-(5-methoxy-indol-3-yl)-ethyl]-comanilamide and 2-methyl-4-oxo-4H-pyran-3-yl [2-(5-methoxy-1H-indol-3-yl)ethyl]carbamate on Nav1.x Channels Expressed in Mammalian Cells
Method. A block of hNav1.x channels was measured using the stimulus voltage pattern shown in FIG. 1; voltage potentials are indicated in Table 2, below. The pulse pattern repeated twice: before and 5 minutes after N-[2-(1H-indol-3-yl)-ethyl]-comanilamide, N-[2-(5-methoxy-indol-3-yl)-ethyl]-comanilamide and 2-methyl-4-oxo-4H-pyran-3-yl[2-(5-methoxy-1H-indol-3-yl)ethyl]carbamate addition and peak current amplitudes at […] was measured (ITP1 and ITP2).

[5] = tested on: young male subjects, UVB-irradiated skin; assay: UVB sunburn model in humans, cold pain threshold (CPT); format: in vivo, human
Procedure: (§1) The anti-pruritus effect of N-[2-(1H-indol-3-yl)-ethyl]-comanilamide was tested using the UVB sunburn model (R. Rolke et al. (2006), Quantitative sensory testing in the German Research Network on neuropathic pain (DFNS): standardized protocol and reference values, Pain, 123, 231-243) used as an art-accepted surrogate model of itch (Andersen et al., Acta Derm Venereol. 2015; 95(7):771-7. Human surrogate models of histaminergic and non-histaminergic itch.).
(§2) Twenty four young male subjects ([…]N-[2-(1H-indol-3-yl)-ethyl]-comanilamide in escalated doses (300 mg-900 mg) and 6 in the placebo group), were exposed to three times the minimal erythema dose (MED) of UVB light on an approximately 4×4 cm area on the upper part of the leg in the morning of Day (−1) pre-dose on Day 1 and 2.5 hours post—dose on the UVB-irradiated area.
(§3) UVB irradiation causes skin inflammation which is noxious and elicits pronounced inflammation related temperature and mechanical hyperalgesia at the UVB-irradiated site. This hyperalgesia peaks at about 20-24 hours post irradiation after which it slowly subsides. Quantitative sensory testing (QST) assesses characteristic sensory patterns in pain and pruritus models.
(§4) The UVB irradiated skin was obtained by irradiating the marked area (approximately 4×4 cm) of the skin of the upper part of the right leg by three times the MED as determined during the screening. This was done approximately 20 hours prior to dosing.
Cold pain thresholds (CPT) were determined. The mean threshold temperature of five consecutive measurements was calculated. All thresholds were obtained with ramped stimuli (1 C/s) that were terminated when the subject pressed a button.

[6] = tested on: young male subjects, UVB-irradiated skin; assay: UVB sunburn model in humans, mechanical detection threshold (MDT) to von Frey hairs; format: in vivo, human; conditions: baseline Day (−1) before the sunburn; for MDT feel sensation, Post sunburn - Change from Baseline: pre-dose
Procedure: as §1, §2, §3, §4
Mechanical detection threshold (MDT) to von Frey hairs was assessed by using a standardized set of modified von Frey hairs (Optihair; Marstock Nervtest, Marburg, Germany) exerting forces between 0.25 and 512 mN (rounded tip, 0.5 mm in diameter). Thresholds were determined by the method of limits with the geometric mean of a series of 5 ascending and descending stimulus intensities.

[7] = read-out: Normalized % inhibition
[8] = Test conc 0.1 μM, vs 0.1 μM capsaicin

T1 sequence (Q8NER1 whole entry, species assumed): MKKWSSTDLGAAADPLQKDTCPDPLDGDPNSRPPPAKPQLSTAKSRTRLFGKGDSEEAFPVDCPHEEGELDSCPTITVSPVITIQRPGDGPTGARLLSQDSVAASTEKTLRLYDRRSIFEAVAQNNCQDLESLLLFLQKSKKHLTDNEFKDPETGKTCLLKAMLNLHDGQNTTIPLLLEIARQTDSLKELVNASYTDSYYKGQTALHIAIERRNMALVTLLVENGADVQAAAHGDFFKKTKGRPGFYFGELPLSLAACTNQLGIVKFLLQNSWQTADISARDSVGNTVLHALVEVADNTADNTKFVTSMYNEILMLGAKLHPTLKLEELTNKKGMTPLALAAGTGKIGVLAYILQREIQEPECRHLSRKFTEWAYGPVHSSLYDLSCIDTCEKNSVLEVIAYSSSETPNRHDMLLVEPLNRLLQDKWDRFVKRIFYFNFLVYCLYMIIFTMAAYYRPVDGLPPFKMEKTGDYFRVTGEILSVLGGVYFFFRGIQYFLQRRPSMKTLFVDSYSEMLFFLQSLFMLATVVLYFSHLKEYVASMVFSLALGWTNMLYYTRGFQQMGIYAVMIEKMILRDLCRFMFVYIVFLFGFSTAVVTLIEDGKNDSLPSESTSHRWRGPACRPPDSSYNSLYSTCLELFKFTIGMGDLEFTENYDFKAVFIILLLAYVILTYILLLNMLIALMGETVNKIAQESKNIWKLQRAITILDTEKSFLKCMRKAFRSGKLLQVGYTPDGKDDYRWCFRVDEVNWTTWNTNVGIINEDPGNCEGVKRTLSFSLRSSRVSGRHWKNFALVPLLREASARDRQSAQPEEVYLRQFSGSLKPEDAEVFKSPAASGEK
T2 sequence (Q15858 whole entry): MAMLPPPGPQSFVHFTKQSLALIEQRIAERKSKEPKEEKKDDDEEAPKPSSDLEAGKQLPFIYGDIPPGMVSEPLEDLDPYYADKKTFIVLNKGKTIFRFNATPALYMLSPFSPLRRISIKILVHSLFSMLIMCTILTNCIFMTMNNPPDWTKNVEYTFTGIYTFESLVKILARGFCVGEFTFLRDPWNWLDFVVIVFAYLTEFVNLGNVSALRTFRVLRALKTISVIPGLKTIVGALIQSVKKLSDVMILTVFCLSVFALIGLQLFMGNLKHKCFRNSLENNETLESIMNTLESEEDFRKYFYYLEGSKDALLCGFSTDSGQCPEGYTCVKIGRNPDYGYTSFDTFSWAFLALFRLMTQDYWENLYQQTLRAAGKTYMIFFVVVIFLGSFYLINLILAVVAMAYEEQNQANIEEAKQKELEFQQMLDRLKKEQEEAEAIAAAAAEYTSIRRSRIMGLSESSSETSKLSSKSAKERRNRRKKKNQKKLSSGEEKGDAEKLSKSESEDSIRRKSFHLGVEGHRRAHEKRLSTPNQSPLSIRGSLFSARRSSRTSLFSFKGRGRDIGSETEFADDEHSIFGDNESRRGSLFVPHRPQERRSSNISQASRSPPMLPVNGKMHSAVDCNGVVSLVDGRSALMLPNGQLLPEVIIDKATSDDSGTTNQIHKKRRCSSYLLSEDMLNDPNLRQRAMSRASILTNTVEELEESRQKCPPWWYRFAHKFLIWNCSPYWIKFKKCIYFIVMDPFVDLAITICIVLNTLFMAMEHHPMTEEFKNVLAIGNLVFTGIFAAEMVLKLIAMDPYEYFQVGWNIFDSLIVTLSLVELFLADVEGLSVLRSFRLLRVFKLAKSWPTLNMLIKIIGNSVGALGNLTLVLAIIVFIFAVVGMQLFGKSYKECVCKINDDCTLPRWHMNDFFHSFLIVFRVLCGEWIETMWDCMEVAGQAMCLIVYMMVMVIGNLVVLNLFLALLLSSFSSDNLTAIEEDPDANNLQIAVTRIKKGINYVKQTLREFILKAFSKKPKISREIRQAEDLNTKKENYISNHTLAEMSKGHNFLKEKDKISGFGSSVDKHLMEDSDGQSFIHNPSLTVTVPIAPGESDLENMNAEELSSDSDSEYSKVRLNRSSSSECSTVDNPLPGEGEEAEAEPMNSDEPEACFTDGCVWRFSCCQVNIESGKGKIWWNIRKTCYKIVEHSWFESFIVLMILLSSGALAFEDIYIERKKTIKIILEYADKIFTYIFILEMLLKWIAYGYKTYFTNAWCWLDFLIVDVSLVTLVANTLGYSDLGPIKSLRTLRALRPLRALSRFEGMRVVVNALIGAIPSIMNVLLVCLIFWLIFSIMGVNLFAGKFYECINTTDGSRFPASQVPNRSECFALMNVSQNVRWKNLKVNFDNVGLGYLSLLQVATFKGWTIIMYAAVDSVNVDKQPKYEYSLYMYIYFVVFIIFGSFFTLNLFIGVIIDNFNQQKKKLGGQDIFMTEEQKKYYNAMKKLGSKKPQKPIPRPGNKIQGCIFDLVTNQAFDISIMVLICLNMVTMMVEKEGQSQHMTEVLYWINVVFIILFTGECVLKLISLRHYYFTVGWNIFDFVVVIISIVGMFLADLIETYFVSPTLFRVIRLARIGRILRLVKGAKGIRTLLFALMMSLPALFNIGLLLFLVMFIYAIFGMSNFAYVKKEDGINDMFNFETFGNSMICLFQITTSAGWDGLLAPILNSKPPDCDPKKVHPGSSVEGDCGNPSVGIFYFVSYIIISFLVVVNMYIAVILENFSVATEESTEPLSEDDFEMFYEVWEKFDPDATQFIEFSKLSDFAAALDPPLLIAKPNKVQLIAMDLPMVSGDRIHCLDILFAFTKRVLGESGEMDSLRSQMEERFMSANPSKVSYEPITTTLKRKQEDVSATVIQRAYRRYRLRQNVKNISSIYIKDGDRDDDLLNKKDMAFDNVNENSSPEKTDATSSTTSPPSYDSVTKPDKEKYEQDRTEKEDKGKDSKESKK

SMILES	inhibitory effect on TRPV1 mediated calcium influx (in words) [2]	Normalized % Activation ([3]; Test conc 0.1 μM) [%]	Normalized % Activation ([3]; Test conc 0.5 μM) [%]	Normalized % Activation ([3]; Test conc 1 μM) [%]	Normalized % Activation ([3]; Test conc 5 μM) [%]	Normalized % Activation ([3]; Test conc 10 μM) [%]	inhibition at 0.1 µM [2, 8] [%]	inhibition at 0.5 µM ([2]; vs 0.1 μM capsaicin) [%]	inhibition at 1 µM ([2]; vs 0.1 μM capsaicin) [%]	inhibition at 5 µM ([2]; vs 0.1 μM capsaicin) [%]	inhibition at 10 µM ([2]; vs 0.1 μM capsaicin) [%]	other results
COc1ccc2[nH]cc(CCNC(=O)Oc3c(C)occc3=O)c2c1 [2-methyl-4-oxo-4H-pyran-3-yl [2-(5-methoxy-1H-indol-3-yl)ethyl]carbamate]	significant inhibitory effect	12.65	9.58	12.16	5.75	12.26	–	–	–	–	–	inhibition of the licking response, early phase [1]: 54%; inhibition of the licking response, late phase [1]: 86%; inhibition at 0.1 µM [2]: -1.78%; inhibition at 0.5 µM [3, 7]: 23.6%; inhibition at 1 µM [3, 7]: 45.1%; inhibition at 5 µM [3, 7]: 44.6%; inhibition at 10 µM [3, 7]: 41.5%
O=C(NCCc1c[nH]c2ccccc12)c1cc(=O)cco1 [N-[2-(1H-indol-3-yl)-ethyl]-comanilamide]	significant inhibitory effect	23.07	11.93	10.51	8.71	10.13	9.88	2.44	31.1	26.1	37.7	inhibition of the licking response, early phase ([1]; 100 mg/kg): 57% and 38%; inhibition of the licking response, late phase ([1]; 100 mg/kg): 90% and 62%; selectivity among hNav1.x channels (in words) [4]: preferential inhibition of Nav1.7 channels; CPT, Post sunburn ([5]; 600 mg group, after UVB, pre-dose): 16.03 °C; CPT, Pre sunburn ([5]; 600 mg group, before UVB and before dosing): 5.55 °C; CPT, 2.5 h Post Drug Administration ([5]; 600 mg, 2.5 h post dose): 12.75 °C; time of peak response post dosing ([5]; human UVB sunburn model, analgesic/anti-pruritus effects): 2.5 h; MDT feel sensation, Post sunburn - Change from Baseline ([6]; 300 mg group): −10.92 mN; MDT feel sensation, 2.5 h post Drug administration - Change from Baseline ([6]; 300 mg): −12.13 mN; MDT feel sensation, Post sunburn - Change from Baseline ([6]; 600 mg group): −3.52 mN; MDT feel sensation, 2.5 h post Drug administration - Change from Baseline ([6]; 600 mg): −0.017 mN; MDT feel sensation, Post sunburn - Change from Baseline ([6]; 900 mg group): −7.24 mN; MDT feel sensation, 2.5 h post Drug administration - Change from Baseline ([6]; 900 mg): 0.84 mN
COc1ccc2[nH]cc(CCNC(=O)c3cc(=O)cco3)c2c1 [N-[2-(5-methoxy-indol-3-yl)-ethyl]-comanilamide]	significant inhibitory effect	18.12	11.95	14.04	12.92	13.67	15.2	1.19	36.4	35.4	42.6	–
